Test in all cases: inhibition of tumour cell growth, NCI panel, 48 h
Test [1] relates to OVCAR-4 ovarian.
Test [2] concerns IGROV1 ovarian.
Test [3] relates to LOX IMVI melanoma.
The test system of test [4] is K-562 leukemia.
In test [5] the test system is KM12 colon.
Test [6] deals with HCT-116 colon.
Test [7] relates to HCC-2998 colon.
The subject of test [8] is HCT-15 colon.
The subject of test [9] is RXF 393 renal.

Where “and” joins values, the source holds several entries; their conditions need not be identical. Equal entries are not always repeated.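 Protocol summary: plate cells (96-well), add compound at 5 concentrations, incubate 48 h, interpolate endpoints linearly. GI50 marks 50% less growth. At the TGI there is no net growth.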

For `COC(=O)/C(=N\NC(=O)C[N+](C)(C)C)C(C(=O)OC)C(=O)C(=O)Nc1ccccc1C(N)=O` (centres undefined), the TGI in test [1], in test [2], in [3], in test [4], in test [5] and in [6] was over 100 µM each time. Further, the TGI in test [7], in test [8] and in [9] was over 100 µM in each case.

`O=c1[nH]nc2ccccc2c1Cc1ccccc1`: the TGI in [1], in test [2], in test [3], in test [4], in test [5] and in test [6] was over 100 µM each time. Moreover, the TGI in test [7] and in test [8] was over 100 µM in each case.

For `O=C(NC(=O)c1cn(CCN(CCO)C(=O)NCCCCCCNC(=O)N(CCO)CCn2cc(C(=O)NC(=O)OCc3ccccc3)c(=O)[nH]c2=O)c(=O)[nH]c1=O)OCc1ccccc1`, the TGI in [1], in [2], in [3], in [4], in test [6] and in [8] was over 100 µM throughout. This molecule also came in with a TGI in [9] of over 100 µM.

Turning to `Clc1ccc(N=Nc2nc3ccccc3nc2N=Nc2ccc(Cl)cc2Cl)c(Cl)c1`, the TGI in test [1], in test [2], in [3], in test [4], in test [5] and in test [6] was over 100 µM in each case. Besides, the TGI in test [7], in test [8] and in test [9] was over 100 µM throughout.

`COc1ccc(-c2nc(/C=N/Nc3cc(C)nc4ccc(Cl)cc34)c(C)o2)cc1`: the GI50 in test [1] was 1.53 µM; in test [2], 1.76 µM; in [3], 1.74 µM; in [5], 1.79 µM; in [6] it was 1.82 µM; in test [7], 1.85 µM. For the same molecule, the GI50 is 1.52 µM in test [8] and 1.64 µM in test [9]. In addition, the TGI in test [1] was determined as 2.9 µM; in test [2], 3.36 µM; in test [3], 3.23 µM; in test [5], 3.49 µM; in test [6], 3.27 µM; in test [7] it was 3.39 µM. For the same molecule, the TGI came out at 3.06 µM in test [8] and 3.14 µM in [9].

Take `CCN(CC)CCOc1ccc(CCc2cc(OC)c(OC)c(OC)c2)cc1`: the TGI in test [1] is over 100 µM; in test [2] it was over 100 µM; in [3], 26.9 µM; in [4], over 100 µM; in test [5] it was over 100 µM; in test [6], over 100 µM. Moreover, the figures for the TGI in [8] and in [9] were over 100 µM and 93.2 µM, respectively.

Turning to `Cc1ccc(SSc2ccc(C)cc2C(=O)O)c(C(=O)O)c1`, the TGI in test [1], in [3], in test [4], in test [5] and in test [9] was over 100 µM each time.

As for `C=CCNC(=O)N(CCCC(NC(C)=O)C(=O)NCc1ccccc1)Cc1ccccc1` (centres undefined), the TGI in test [1], in test [2], in test [3], in test [4], in test [5] and in test [8] was over 100 µM in each case. Besides, in test [9], the TGI is over 100 µM.

For the molecule `Cc1oc2c(C)c3oc(=O)cc(C)c3cc2c1CN1C(=O)C2OCCOCCOCCOCCOCCO[C@H]2C1=O` (some centres undefined), the TGI in test [1], in test [2], in [3], in test [4], in test [5] and in test [6] was over 100 µM throughout. For the same molecule, the TGI in test [7], in test [8] and in test [9] was over 100 µM throughout.

Consider `COc1ccc2c(c1)[n+]([O-])c(-c1ccc(OC)c(OC)c1)c(N)[n+]2[O-]`, for which the TGI in test [1], in [2], in test [3], in [4], in [5] and in test [7] was over 100 µM in each case. The molecule also returned a TGI in [8] of over 100 µM.

For the molecule `C#CC1(O)C(COP(=O)(O)OC(COCCCCCCCCCCCCCCCCCC)COP(=O)(O)OCC2OC(n3cc(F)c(=O)[nH]c3=O)CC2O)OC(n2ccc(N)nc2=O)C1O` (centres undefined), the GI50 in test [1] was 3.05 µM and 1.5 µM; in [2], 0.135 µM; in [6], < 0.024 µM and 0.142 µM; in test [8], 0.134 µM and 0.335 µM; in [9] it was 0.306 µM and 2.46 µM. The TGI in [1] is 31.4 µM and 23.4 µM; in test [2], 2.59 µM and 4.59 µM; in test [3], 7.25 µM and 37.7 µM; in test [4], > 100 µM and 16.7 µM; in test [5], > 49.8 µM and 17 µM; in test [6], over 100 µM. In addition, the TGI in [7] was over 28.4 µM; in [8], > 74.9 µM and 34.4 µM; in [9] it was 17.3 µM and 22.5 µM.

For `COC1OC(CBr)C(OC(=O)c2ccccc2)C(O)C1Br` (centres undefined), the TGI in [1] is over 100 µM; in [2] it was over 10 µM; in test [3] it was over 100 µM; in test [4] it was over 100 µM; in test [5], over 100 µM; in [6], over 100 µM. The TGI in [7], in test [8] and in [9] was over 100 µM throughout.

`O=C1NC2(CCCCCC2)C2CCCCCCC12O` (centres undefined): the TGI in test [1], in test [2], in test [3], in test [4], in test [5] and in test [6] was over 100 µM throughout. Also, the TGI in test [8] and in test [9] was over 100 µM in each case.

Consider `Cc1cc2c(C)nn(Cc3ccccc3)c2c(C(N)=O)c1C`, for which the TGI in [1], in test [2], in [3], in test [4], in [5] and in test [6] was over 100 µM throughout. The TGI in [7] and in [8] was over 100 µM in each case.

For `c1ccc(C(c2ccccc2)c2cccnc2)cc1`, the TGI in test [1], in [2], in test [3], in [4], in [5] and in test [6] was over 100 µM in each case. Moreover, the TGI in test [7] and in test [8] was over 100 µM in each case.

Turning to `Cc1cc(NCCCCCCNc2cc(C)nc3cc(N(C)C)ccc23)c2ccc(N(C)C)cc2n1`, the TGI in test [1], in [4], in test [5], in [6], in test [7] and in [8] was over 100 µM each time. In test [9], the TGI was over 100 µM.

For `C1COCCN1.C1COCCN1.NC1CCCCC1N.[Cl-].[Pt+2]` (centres undefined), the GI50 in test [1], in test [2], in [3], in test [4], in [5] and in test [6] was over 100 µM in each case. The GI50 in [7] and in [9] was over 100 µM throughout. In addition, the TGI in [1], in test [2], in test [3], in test [4], in [5] and in [6] was over 100 µM in each case. In addition, the TGI in test [7] and in [9] was over 100 µM each time.

Take `CCOC1=C2C(=O)OC(=O)C2C2CCCCC2=C1` (centres undefined): the TGI in test [1], in test [2], in test [3], in [4], in test [5] and in test [6] was over 100 µM each time. For the same molecule, the TGI in test [7], in test [8] and in test [9] was over 100 µM each time.

Consider `O=c1c2ccccc2c(=O)n2n1CC=CC2`, for which the TGI in [1], in test [2], in test [3], in test [4], in test [5] and in test [6] was over 100 µM in each case. In addition, the TGI in test [7], in test [8] and in [9] was over 100 µM each time.

Regarding `CC(C)CCCC(C)[C@H]1CCC2[C@@H]3CCC4Nc5nocc5C[C@]4(C)C3CC[C@@]21C` (some centres undefined), the TGI in test [1] is 39.3 µM; in test [2], 57 µM; in test [3], 4.95 µM; in test [4], 38.3 µM; in test [5], 38.4 µM; in [6], 32.4 µM. Besides, the TGI in test [7] amounted to 29.5 µM; in test [8], 30.3 µM; in test [9], 28.5 µM.

On to `N.N.N.N.N.[Cl-].[Co+3].c1ccc(-c2nn[n-]n2)cc1`, for which the GI50 in test [1], in test [2], in test [3], in test [4], in test [5] and in [6] was over 100 µM in each case. Also, the GI50 in test [7], in [8] and in test [9] was over 100 µM in each case. The TGI in test [1], in [2], in test [3], in [4], in test [5] and in test [6] was over 100 µM each time. For the same molecule, the TGI in test [7], in [8] and in test [9] was over 100 µM in each case.

Take `COCC(O)Cn1ccnc1[N+](=O)[O-]` (centres undefined): the TGI in test [3], in [4], in test [5], in [6], in test [7] and in test [8] was over 100 µM in each case.

Turning to `O=C1Nc2nc3ccccc3n2N=C2CCCC12` (centres undefined), the TGI in test [1], in test [2], in test [3], in test [4], in test [5] and in [6] was over 100 µM each time. Besides, the TGI in [7], in test [8] and in test [9] was over 100 µM each time.

As to `O=C1C2C3C=C4c5ccccc5N(c5ccccc5)C4(C2C(=O)N1c1ccc(Cl)cc1)[C@H]1C(=O)N(c2ccc(Cl)cc2)C(=O)[C@@H]31` (some centres undefined), the TGI in test [1], in test [2], in [3], in test [4], in [5] and in [6] was over 100 µM in each case. Besides, the TGI in test [8] and in test [9] was over 100 µM in each case.

As to `O=C(O/C(=C(/N=Nc1ccccc1)c1ccccc1)c1ccccc1)c1ccccc1`, the TGI in [1], in test [2], in [4], in test [5], in [6] and in test [7] was over 100 µM throughout. For the same molecule, the TGI in test [8] and in test [9] was over 100 µM each time.

For `CCn1cc(C(=O)N/N=C/c2ccccc2)c(=O)c2cc(F)c(N3CCNC(C)C3)c(F)c21` (centres undefined), the GI50 in test [1] was 2.04 µM; in test [2] it was 1.71 µM; in [7], 1.8 µM; in [8] it was 1.45 µM. The TGI is 3.62 µM in test [1], 3.2 µM in test [2], 3.32 µM in test [7] and 2.82 µM in test [8].

Consider `CCOC(=O)c1c2c(n(Cc3ccc(Cl)cc3Cl)c1C)-c1nc[nH]c1C(=O)C2=O`, for which the GI50 was 6.58 µM in [1]; 11.2 µM in test [2]; 3.54 µM in test [3]; 3.21 µM in test [4]; 5.87 µM in test [5]; 2.16 µM in test [6]. The GI50 in test [8] is 11 µM; in test [9], 10.2 µM. Further, the TGI turned out to be 19.3 µM in test [1]; 24 µM in [2]; 13.7 µM in test [3]; 12.3 µM in [4]; 19.4 µM in [5]; 5.66 µM in [6]. In addition, the TGI in [8] was 23 µM; in test [9], 22.7 µM.

`COc1cc([C@@H]2c3cc4c(cc3[C@@H](OC(=O)c3ccc(N)cc3)C3COC(=O)[C@@H]32)OCO4)cc(OC)c1O` (some centres undefined): the TGI in test [1] is over 95 µM; in [2], 17.3 µM; in test [3], 50.7 µM; in [4], over 95 µM; in test [5], 44.7 µM; in test [6] it was over 95 µM. Besides, the TGI was 36.3 µM in test [7], 56.1 µM in test [8] and over 95 µM in test [9].

Source of the values: PubChem BioAssay (NCI).
